Test results taken from PubChem BioAssay (NCI).
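Results reflect a 48-hour exposure of cells in 96-well plates to compound at five concentrations. TGI: concentration producing complete growth inhibition.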 Where a SMILES comes first, the peptide text is derived from it. The star is where a group is joined. Boc = CC(C)(C)OC(=O)*; OBn = c1ccc(CO*)cc1; Bn = c1ccc(C*)cc1

Tests used:
Assay in all cases: DTP human tumour cell line panel, 48 h
[1] = test system: SR leukemia
[2] = test system: COLO 205 colon
[3] = test system: MCF7 breast
[4] = test system: HCT-116 colon
[5] = test system: NCI-H460 lung
[6] = test system: A498 renal
[7] = test system: 786-0 renal
[8] = test system: T-47D breast
[9] = test system: K-562 leukemia
[10] = test system: SNB-75 CNS
[11] = test system: SW-620 colon

SMILES | TGI [1] | TGI [2] | TGI [3] | TGI [4] | TGI [5] | TGI [6] | TGI [7] | TGI [8] | TGI [9] | TGI [10] | TGI [11]
COc1ccc(OC)c2c1C[C@@H]1C(C#N)N3[C@H](Cc4c(OC)ccc(OC)c4[C@@H]3C)C(=O)N1[C@H]2C (some centres undefined) | 9.12 µM | 3.52 µM | 17.5 µM | 11.8 µM | 48 µM | 42.1 µM | 7.72 µM | 15.1 µM | 7.26 µM | 5.02 µM | 8.41 µM
CC1(c2cccc(C3CCC4(C=CC3=O)OCCO4)c2)OCCO1 (centres undefined) | 12.5 µM | 18.6 µM | 25.9 µM | 13.2 µM | 30.6 µM | 33.5 µM | 11 µM | 23.5 µM | 25.1 µM | 30.3 µM | 8.07 µM
COC(=O)c1c(C)nc(C)c(N=O)c1-c1ccccc1C(F)(F)F | > 100 µM | > 100 µM | 40.8 µM | 31.8 µM | > 100 µM | > 100 µM | 31.5 µM | 39.5 µM | > 100 µM |  | 30.1 µM
CCCCc1cc2c(cc1O)CCC1C2CC[C@@]2(C)C1CC[C@@H]2O (some centres undefined) | 51.3 µM | 49.5 µM | 30.4 µM | 36.6 µM | 63.5 µM | 57.2 µM | 73.1 µM | 35.8 µM | 43.6 µM | 31.7 µM | 59.2 µM
COC(=O)CP1(=O)OC2C(C3CCC2(C)C3(C)C)N1c1cc(C(F)(F)F)cc(C(F)(F)F)c1 (centres undefined) | 62.6 µM | 49.1 µM | > 100 µM | 40.7 µM | 86.2 µM | > 100 µM | 41.7 µM | 71 µM | 68.3 µM | 51.9 µM | 88.3 µM
S=C1c2cc(Cl)ccc2NC(=NC2CCCC2)C2CSCN12 (centres undefined) | > 100 µM | > 100 µM | > 100 µM | > 100 µM | > 100 µM | > 100 µM | > 100 µM | > 100 µM | > 100 µM | > 100 µM | > 100 µM
NC12c3c4cccc3Oc3cccc(c31)Oc1cccc(c12)O4 | > 50 µM | > 50 µM | > 50 µM | > 50 µM | > 50 µM | > 50 µM | > 50 µM | > 50 µM | > 50 µM | > 50 µM | > 50 µM
CCOC(=O)c1cc(-c2ccc(OC)c(OC)c2)cn1C | > 10 µM | > 10 µM | > 10 µM | > 10 µM | > 10 µM | > 10 µM | > 10 µM | > 10 µM | > 10 µM | > 10 µM | 
COc1cc(O)c(C(=O)/C=C/c2ccc(O)cc2)cc1Oc1ccc(C(=O)/C=C/c2ccc(O)cc2)c(O)c1 | > 100 µM | 3.58 µM | 13.5 µM | 4 µM | 12.1 µM | 5.68 µM | 5.73 µM | 8.86 µM | 10.7 µM | 7.5 µM | 11 µM
CC1CCN(c2nnc(Cl)cc2C(=O)c2ccccc2)CC1 | 45.6 µM | 46.9 µM | 36.9 µM | > 100 µM | > 100 µM | > 100 µM | > 100 µM | > 100 µM | > 100 µM | 70 µM | 59.6 µM
COc1ccc2cc(C(=O)NCCc3ccccc3)ccc2c1OC | > 100 µM | > 100 µM | > 100 µM | > 100 µM | > 100 µM | > 100 µM | > 100 µM | > 100 µM | > 100 µM |  | > 100 µM
COc1ccc2c(c1)CC[C@@H]1C2CC[C@]2(C)OC(=O)CCC12 (some centres undefined) | > 100 µM | > 100 µM | 35.2 µM | 21.6 µM | > 100 µM | > 100 µM | 17.7 µM | > 100 µM | > 100 µM |  | 24.3 µM
CC(C)CC(NC(=O)C(Cc1ccccc1)NC(=O)C(COCc1ccccc1)NC(=O)OC(C)(C)C)C(=O)OCc1ccccc1 (stereo not drawn) (Boc-Ser(Bn)-Phe-Leu-OBn; configuration not given here) | 44.3 µM | 43.9 µM | > 100 µM | 32.9 µM | 26.4 µM | > 100 µM | 30.8 µM | > 100 µM | 45.2 µM | 57.6 µM | 56.7 µM
O=[N+]([O-])c1ccccc1S(=O)(=O)N1CCCc2cc(Cl)ccc21 | > 79.8 µM | > 100 µM | > 80.3 µM | > 100 µM | > 100 µM | 76.1 µM | > 100 µM | 96.5 µM | > 75.2 µM | > 100 µM | > 100 µM
c1ccc(COc2nc3ccc(C45CC6CC(CC(C6)C4)C5)cc3[nH]2)cc1 | > 100 µM | 21.2 µM | > 100 µM | > 83.5 µM | > 71.3 µM | > 100 µM | > 100 µM | 34.1 µM | > 100 µM | > 86.5 µM | > 100 µM
Cc1ccc(S(=O)(=O)OC2CN3CCC2CC3)cc1 (centres undefined) | > 100 µM | > 100 µM | > 100 µM | > 100 µM | > 100 µM | > 100 µM | > 100 µM | > 100 µM | > 100 µM | > 100 µM | > 100 µM
CCC(C#N)N(Cc1cccc(CN(C(C)=O)C(C#N)CC)c1)C(C)=O (centres undefined) | > 100 µM | > 100 µM | > 100 µM | > 100 µM |  | > 100 µM | > 100 µM | > 100 µM | > 100 µM | > 100 µM | > 100 µM
CC(=O)c1nc2ccccc2n1CC(=O)c1ccc([N+](=O)[O-])cc1 | > 100 µM | > 100 µM | 58.8 µM | 25.1 µM | 68.6 µM | > 100 µM | 15.9 µM | > 100 µM | > 100 µM | > 100 µM | 41.6 µM
C=C1C(=O)OC2C(C)C3C=CC(=O)[C@@]3(C)C(OC(=O)/C(C)=C/C)C1[C@@H]2OC(C)=O (some centres undefined) | 3.61 µM | 0.906 µM | 1.37 µM | 0.769 µM | 1.33 µM | 2.81 µM | 0.63 µM | 2.13 µM | 16 µM | 2.98 µM | 0.694 µM
